Measurements: patent US20240336604A1 (THE UNITED STATES OF AMERICA, AS REPRESENTED BY THE …, priority 2021, published 2024)
Like-named read-outs stand apart in the source and are kept apart here.

Key:
Format in all cases: cell-based
D2 DAR [1] = biological target: T1, D2 DAR (Homo sapiens, UniProt P14416); test: BRET β-arrestin recruitment assay, D2 DAR; conditions: FIG. 3A right
Description: BRET β-arrestin recruitment assay: As an orthogonal test using an unrelated assay of D2- or D3 DAR-mediated β-arrestin recruitment, an arrestin BRET assay was conducted. HEK293T cells transiently expressing D2-Rluc8, Arrestin3-mvenus and GRK2, or D3-Rluc8, Arrestin3-mvenus, and GRK3 were harvested with EBSS, plated in 96-well plates in Dulbecco's phosphate-buffered saline (DPBS) and incubated at rt for 45 min. […] BRET signal was determined by quantifying and calculating the ratio of the light emitted by mVenus (525 nm) over that emitted by RLuc8 (485 nm) using a PHERAstar FSX Microplate Reader (BMG Labtech).

D2 DAR [2] = biological target: T1, D2 DAR; test: cAMP CAMYEL biosensor assay, D2 DAR; conditions: FIG. 3C right
Description: cAMP CAMYEL biosensor assay: HEK293 cells transiently expressing the D2 DAR or D3 DAR and the CAMYEL cAMP biosensor (yellow fluorescence protein-Epac-Rluc) were harvested with EBSS, plated in 96-well white plates at 20,000 cells/well in DPBS and incubated at room temperature for 45 min. […] BRET signal was determined by quantifying and calculating the ratio of the light emitted by mVenus (525 nm) over that emitted by RLuc8 (485 nm) using a PHERAstar FSX Microplate Reader (BMG Labtech).

168 unique GPCRs = test: DiscoverX gpcrMAX β-arrestin recruitment assay panel; conditions: 30 μM
Description: Cmp. 1 was tested as both an agonist (FIG. 5A) or an antagonist (FIG. 5B) at a single high concentration (30 μM) on 168 different GPCRs in the DiscoverX gpcrMAX™ β-arrestin recruitment assay panel (FIGS. 5A and 5B). Assay results are presented as the mean percent activation of indicated GPCRs (for n=2 replicates). For a full description of the DiscoverX gpcrMAX™-GPCR assay panel and methods (see: http://www.DiscoverX.com). […] Data were provided by the National Institute of Mental Health (NIMH) Psychoactive Drug Screening Program (PDSP) (University of North Carolina, Chapel Hill, NC). For experimental details including radioligands used and associated Kd values for each individual target, refer to the PDSP website: http://pdsp.med.unc.edu/. While Cmp. […] The 5-HT6 receptor was not present in the functional panels, however, subsequent testing found Cmp.

5-HT6 receptor = 5-HT6 receptor (Homo sapiens, UniProt P50406); test: 5-HT6 cAMP recruitment assay; conditions: read-out: IC50, antagonism of the 5-HT6 receptor
[3] = system: other dopamine receptor subtypes; test: DiscoverX β-arrestin assay, other dopamine receptors; conditions: FIG. 1A
Description: For a secondary-screen and selectivity assays, DAR PathHunter®-arrestin GPCR cell lines from DiscoverX (Fremont, CA) were used. In the D2 DAR PathHunter®-arrestin GPCR cell line, the D2 DAR is overexpressed and fused with a small 42-amino acid fragment of β-galactosidase called ProLink™ on a CHO cellular background expressing a fusion protein of β-arrestin and a larger N-terminal deletion mutant of β-galactosidase (“enzyme acceptor”). When the D2 DAR is activated by dopamine, it stimulates binding of β-arrestin to the ProLink-tagged DAR and the two complementary parts of β-galactosidase form a functional enzyme. When substrate (PathHunter™ Detection reagent) is added, β-galactosidase hydrolyzes it and generates a chemiluminescent signal.

D3 DAR = D3 DAR (Homo sapiens, UniProt P35462); test: DiscoverX D3 DAR β-arrestin recruitment assay; parameters: host or cells: CHO
Summary of the method: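 CHO cells overexpressing D3 DAR fused to a ProLink β-galactosidase fragment plus a β-arrestin–β-galactosidase deletion mutant fusion. Receptor activation drives β-arrestin recruitment and enzyme complementation. Chemiluminescent read-out after detection substrate is added.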

Chain of D3 DAR (P35462 whole entry, the tested form may be a part): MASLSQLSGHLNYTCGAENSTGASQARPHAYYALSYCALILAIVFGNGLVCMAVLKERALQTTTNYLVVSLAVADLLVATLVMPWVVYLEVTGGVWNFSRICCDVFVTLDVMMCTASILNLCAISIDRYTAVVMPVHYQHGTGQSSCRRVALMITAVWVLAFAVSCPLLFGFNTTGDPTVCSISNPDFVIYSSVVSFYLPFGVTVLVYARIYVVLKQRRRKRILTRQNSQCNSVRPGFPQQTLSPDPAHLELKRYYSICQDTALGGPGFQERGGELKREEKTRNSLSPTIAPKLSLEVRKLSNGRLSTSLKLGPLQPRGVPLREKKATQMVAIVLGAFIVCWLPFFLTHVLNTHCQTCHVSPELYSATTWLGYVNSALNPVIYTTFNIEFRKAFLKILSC
T1 sequence (P14416 whole entry): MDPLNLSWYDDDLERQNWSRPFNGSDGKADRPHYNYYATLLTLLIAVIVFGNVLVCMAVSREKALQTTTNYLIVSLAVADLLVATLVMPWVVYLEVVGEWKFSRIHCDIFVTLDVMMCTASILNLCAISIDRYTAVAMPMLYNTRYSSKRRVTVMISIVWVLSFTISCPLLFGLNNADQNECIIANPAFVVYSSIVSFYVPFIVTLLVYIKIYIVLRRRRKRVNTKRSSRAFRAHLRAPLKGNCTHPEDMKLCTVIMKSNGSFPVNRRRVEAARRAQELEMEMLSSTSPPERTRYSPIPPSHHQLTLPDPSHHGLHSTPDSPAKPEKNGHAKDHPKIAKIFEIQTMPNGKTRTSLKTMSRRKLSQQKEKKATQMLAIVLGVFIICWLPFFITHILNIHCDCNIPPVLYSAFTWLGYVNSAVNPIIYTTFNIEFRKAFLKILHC
Chain of 5-HT6 receptor (P50406 whole entry): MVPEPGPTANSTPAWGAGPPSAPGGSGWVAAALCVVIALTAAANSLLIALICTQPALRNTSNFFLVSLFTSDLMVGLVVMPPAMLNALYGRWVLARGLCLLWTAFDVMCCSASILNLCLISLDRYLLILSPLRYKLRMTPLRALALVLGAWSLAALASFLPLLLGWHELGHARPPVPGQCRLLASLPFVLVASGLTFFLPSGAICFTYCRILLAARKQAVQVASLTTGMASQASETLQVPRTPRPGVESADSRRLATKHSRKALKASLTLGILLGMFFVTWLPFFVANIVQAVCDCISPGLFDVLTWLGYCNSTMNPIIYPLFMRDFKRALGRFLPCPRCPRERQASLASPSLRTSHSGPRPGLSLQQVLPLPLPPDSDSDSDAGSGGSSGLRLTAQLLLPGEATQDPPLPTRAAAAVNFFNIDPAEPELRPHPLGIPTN

antagonist activity at the D2 DAR, BRET β-arrestin (D2 DAR [1]): lacked antagonist activity
antagonist activity at the D2 DAR, cAMP CAMYEL (D2 DAR [2]): lacked antagonist activity
functional activity at the H1 receptor in the functional panels (168 unique GPCRs; H1 receptor): no functional activity
IC50 (5-HT6 receptor): > 50 µM
IC50 (D3 DAR; DiscoverX β-arrestin assay, FIG. 1A, 2A, read-out: IC50, inhibition of dopamine-stimulated β-arrestin recruitment to the D3 DAR): ~16 µM
IC50 (D3 DAR; EC80 concentration of DA (30 nM), read-out: D3 DAR IC50): 10 to 50 µM
Emax (D3 DAR; Imax=maximum inhibition, EC80 DA (30 nM)): 80 to 100%
Structure (SMILES): Cc1ccc(NS(=O)(=O)c2c(C)[nH]c(C)c2C(=O)N2CCCC2)cc1Cl [Cmp. 1]
agonist activity in gpcrMAX panel (168 unique GPCRs; agonist mode): lacked agonist activity at all 168 GPCRs
antagonist activity in gpcrMAX panel (168 unique GPCRs; antagonist mode): the only GPCR that was antagonized was the D3 DAR
activity at other dopamine receptor subtypes [3]: no activity
